Key:
[1] = Clearance in rat at 1 mg/kg, iv; assay type: ADME, organism-based; design: dose 1 mg/kg, route intravenous; conditions: in vivo
Cytochrome P450 3A4 = Cytochrome P450 3A4 (Homo sapiens, UniProt P08684); test: Inhibition of CYP3A4; assay type: ADME
Histamine H3 receptor [2] = molecular target: T1, Histamine H3 receptor (Homo sapiens, UniProt Q9Y5N1); test: Displacement of [3H]-N-alpha-methylhistamine from human cloned histamine H3 receptor expressed in CHO cells; assay type: cell-based
Cytochrome P450 2D6 = Cytochrome P450 2D6 (Homo sapiens, UniProt P10635); test: Inhibition of CYP2D6; assay type: ADME
Sequence of Cytochrome P450 2D6 (P10635 whole entry): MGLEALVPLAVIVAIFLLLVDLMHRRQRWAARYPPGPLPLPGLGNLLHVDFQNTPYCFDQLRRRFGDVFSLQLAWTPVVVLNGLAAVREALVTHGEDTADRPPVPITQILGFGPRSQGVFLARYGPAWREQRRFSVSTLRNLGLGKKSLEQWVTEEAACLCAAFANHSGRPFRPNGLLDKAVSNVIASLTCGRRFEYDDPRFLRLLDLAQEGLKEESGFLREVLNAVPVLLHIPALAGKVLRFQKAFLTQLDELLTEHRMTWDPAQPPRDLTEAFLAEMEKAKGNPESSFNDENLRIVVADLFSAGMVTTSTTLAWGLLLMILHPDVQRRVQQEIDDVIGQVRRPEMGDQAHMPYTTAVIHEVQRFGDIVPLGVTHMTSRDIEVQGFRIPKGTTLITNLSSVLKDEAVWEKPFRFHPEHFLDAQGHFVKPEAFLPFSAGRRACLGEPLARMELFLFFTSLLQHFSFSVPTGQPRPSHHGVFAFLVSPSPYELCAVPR

[3] = Half life in dog liver microsomes; assay type: ADME, Canis lupus familiaris, Microsome
Cytochrome P450 1A2 = molecular target: T2, Cytochrome P450 1A2 (Homo sapiens, UniProt P05177); test: Inhibition of CYP1A2; assay type: ADME
T2 sequence (P05177 whole entry): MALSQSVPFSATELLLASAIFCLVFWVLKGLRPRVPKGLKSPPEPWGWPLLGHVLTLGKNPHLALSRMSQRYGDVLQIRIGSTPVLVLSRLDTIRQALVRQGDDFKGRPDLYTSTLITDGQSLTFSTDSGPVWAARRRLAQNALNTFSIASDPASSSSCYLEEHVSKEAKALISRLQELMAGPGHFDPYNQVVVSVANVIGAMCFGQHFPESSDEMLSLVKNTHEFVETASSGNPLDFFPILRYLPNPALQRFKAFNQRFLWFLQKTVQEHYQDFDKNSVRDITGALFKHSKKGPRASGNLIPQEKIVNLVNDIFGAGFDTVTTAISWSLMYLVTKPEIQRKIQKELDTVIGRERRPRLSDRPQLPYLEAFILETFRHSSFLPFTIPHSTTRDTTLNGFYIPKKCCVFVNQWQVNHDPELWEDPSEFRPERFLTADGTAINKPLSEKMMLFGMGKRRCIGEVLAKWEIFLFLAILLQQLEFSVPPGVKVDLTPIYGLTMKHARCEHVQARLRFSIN

Cytochrome P450 2C19 = Cytochrome P450 2C19 (Homo sapiens, UniProt P33261); test: Inhibition of CYP2C19; assay type: ADME
Sequence of Cytochrome P450 2C19 (P33261 whole entry): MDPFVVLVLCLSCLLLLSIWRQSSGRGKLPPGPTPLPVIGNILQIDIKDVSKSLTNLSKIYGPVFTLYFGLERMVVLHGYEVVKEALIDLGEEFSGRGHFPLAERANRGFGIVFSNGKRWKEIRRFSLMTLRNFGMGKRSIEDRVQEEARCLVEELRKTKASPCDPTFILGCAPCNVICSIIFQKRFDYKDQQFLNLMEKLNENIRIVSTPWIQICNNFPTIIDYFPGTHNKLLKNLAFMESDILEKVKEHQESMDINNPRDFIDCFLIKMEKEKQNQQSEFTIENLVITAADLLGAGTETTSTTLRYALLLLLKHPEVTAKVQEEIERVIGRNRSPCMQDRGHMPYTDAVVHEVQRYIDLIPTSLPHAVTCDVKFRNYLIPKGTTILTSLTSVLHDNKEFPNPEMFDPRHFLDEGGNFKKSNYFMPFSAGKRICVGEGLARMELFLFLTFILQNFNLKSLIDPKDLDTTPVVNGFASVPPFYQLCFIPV

[4] = Half life in mouse liver microsomes; assay type: ADME, Microsome
[5] = Aqueous solubility of the compound at pH 7.4; assay type: physicochemical; conditions: buffer
[6] = Half life in human liver microsomes; assay type: ADME, Microsome
[7] = Half life in rat at 1 mg/kg, iv; assay type: ADME, organism-based; design: dose 1 mg/kg, route intravenous; conditions: in vivo
[8] = Ratio of drug level in brain to plasma of rat at 10 mg/kg, ip after 1 hr; assay type: ADME, organism-based; design: dose 10 mg/kg, route intraperitoneal; conditions: read-out: BPR
[9] = Oral bioavailability in rat at 5 mg/kg; assay type: ADME, organism-based; conditions: in vivo
[10] = molecular target: Histamine H4 receptor (Homo sapiens) (UniProt Q9H3N8); test: Inhibition of human H4 receptor at 10 uM
Sequence of Histamine H4 receptor (Homo sapiens) (Q9H3N8 whole entry): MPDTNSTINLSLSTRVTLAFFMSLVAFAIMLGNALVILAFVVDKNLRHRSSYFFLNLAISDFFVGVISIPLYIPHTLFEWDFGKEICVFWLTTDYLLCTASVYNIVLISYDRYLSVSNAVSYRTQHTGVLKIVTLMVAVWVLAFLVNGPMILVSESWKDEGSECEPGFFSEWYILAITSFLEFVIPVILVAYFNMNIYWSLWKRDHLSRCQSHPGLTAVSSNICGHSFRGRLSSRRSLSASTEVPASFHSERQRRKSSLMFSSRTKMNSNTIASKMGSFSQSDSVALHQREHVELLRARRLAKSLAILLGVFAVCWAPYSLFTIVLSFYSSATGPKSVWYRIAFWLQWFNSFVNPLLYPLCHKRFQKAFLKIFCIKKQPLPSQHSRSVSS

[11] = Cmax in rat at 5 mg/kg, po; assay type: ADME, organism-based; design: dose 5 mg/kg, route oral; conditions: in vivo
Histamine H3 receptor [12] = molecular target: Histamine H3 receptor (Rattus norvegicus, UniProt Q9QYN8); test: Displacement of [3H]N-alpha-methylhistamine from rat cloned histamine H3 receptor expressed in CHO cells; assay type: cell-based
Sequence of Histamine H3 receptor (Rattus norvegicus, UniProt Q9QYN8) (Q9QYN8 whole entry): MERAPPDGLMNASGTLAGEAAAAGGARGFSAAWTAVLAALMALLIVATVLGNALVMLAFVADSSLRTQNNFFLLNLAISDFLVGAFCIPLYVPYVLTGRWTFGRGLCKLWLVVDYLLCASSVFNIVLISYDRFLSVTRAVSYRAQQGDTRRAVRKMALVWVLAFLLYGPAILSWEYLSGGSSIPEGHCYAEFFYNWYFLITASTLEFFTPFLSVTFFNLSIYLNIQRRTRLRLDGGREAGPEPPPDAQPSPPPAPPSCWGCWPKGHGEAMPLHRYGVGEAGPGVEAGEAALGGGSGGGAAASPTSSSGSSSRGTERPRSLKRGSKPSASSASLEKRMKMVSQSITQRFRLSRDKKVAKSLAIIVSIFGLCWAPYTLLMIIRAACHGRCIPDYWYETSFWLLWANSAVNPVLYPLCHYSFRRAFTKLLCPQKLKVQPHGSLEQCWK

[13] = AUC (infinity) in rat at 5 mg/kg, po; assay type: ADME, organism-based; design: time infinity, dose 5 mg/kg, route oral; conditions: plasma
Cytochrome P450 2C9 = Cytochrome P450 2C9 (Homo sapiens, UniProt P11712); test: Inhibition of CYP2C9; assay type: ADME
Sequence of Cytochrome P450 2C9 (P11712 whole entry): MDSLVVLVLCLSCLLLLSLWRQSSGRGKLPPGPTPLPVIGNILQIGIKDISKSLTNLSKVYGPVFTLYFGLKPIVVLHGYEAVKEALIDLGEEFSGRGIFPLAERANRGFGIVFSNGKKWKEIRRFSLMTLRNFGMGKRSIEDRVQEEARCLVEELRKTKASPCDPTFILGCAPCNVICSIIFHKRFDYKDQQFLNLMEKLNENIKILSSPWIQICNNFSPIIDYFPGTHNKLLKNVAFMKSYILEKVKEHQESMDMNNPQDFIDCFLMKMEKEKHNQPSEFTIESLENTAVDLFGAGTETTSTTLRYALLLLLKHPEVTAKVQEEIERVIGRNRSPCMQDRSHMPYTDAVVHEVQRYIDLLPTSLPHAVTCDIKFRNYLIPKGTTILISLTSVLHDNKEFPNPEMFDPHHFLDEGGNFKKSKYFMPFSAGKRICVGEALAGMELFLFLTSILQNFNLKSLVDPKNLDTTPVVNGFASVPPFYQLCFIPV

[14] = Half life in rat liver microsomes; assay type: ADME, Microsome
[15] = molecular target: Histamine H1 receptor (Homo sapiens) (UniProt P35367); test: Inhibition of human H1 receptor at 10 uM
Sequence of Histamine H1 receptor (Homo sapiens) (P35367 whole entry): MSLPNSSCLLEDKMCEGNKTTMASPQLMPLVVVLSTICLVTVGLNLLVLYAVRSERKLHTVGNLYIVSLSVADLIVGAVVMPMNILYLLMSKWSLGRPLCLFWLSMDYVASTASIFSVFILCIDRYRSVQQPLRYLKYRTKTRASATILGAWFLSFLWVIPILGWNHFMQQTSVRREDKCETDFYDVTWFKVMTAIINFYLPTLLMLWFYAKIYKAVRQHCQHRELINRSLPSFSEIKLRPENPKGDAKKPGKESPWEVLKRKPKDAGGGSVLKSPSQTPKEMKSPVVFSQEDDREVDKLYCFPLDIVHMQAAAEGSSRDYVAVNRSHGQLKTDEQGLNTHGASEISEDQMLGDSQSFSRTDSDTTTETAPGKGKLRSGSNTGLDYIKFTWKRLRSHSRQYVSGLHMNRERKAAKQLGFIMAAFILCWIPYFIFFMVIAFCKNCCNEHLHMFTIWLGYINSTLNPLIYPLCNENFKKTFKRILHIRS

[16] = molecular target: Histamine H2 receptor (Homo sapiens) (UniProt P25021); test: Inhibition of human H2 receptor at 10 uM
Sequence of Histamine H2 receptor (Homo sapiens) (P25021 whole entry): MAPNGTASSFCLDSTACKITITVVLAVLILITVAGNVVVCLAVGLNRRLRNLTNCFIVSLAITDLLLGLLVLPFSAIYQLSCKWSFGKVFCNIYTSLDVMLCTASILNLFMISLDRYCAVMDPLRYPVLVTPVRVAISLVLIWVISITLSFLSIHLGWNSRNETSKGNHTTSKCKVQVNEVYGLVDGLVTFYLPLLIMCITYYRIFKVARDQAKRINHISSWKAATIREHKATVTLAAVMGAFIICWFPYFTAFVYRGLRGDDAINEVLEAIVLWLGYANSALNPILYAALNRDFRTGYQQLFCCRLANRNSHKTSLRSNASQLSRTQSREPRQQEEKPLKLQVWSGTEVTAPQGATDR

[17] = Volume of distribution in rat at 1 mg/kg, iv; assay type: ADME, organism-based; design: dose 1 mg/kg, route intravenous; conditions: in vivo
[18] = molecular target: Histamine H3 receptor (Rattus norvegicus) (UniProt Q9QYN8); conditions: CHO, 10 uM
Sequence of Histamine H3 receptor (Rattus norvegicus) (Q9QYN8 whole entry): as the sequence (Q9QYN8 whole entry) above

Histamine H3 receptor [19] = molecular target: T1, Histamine H3 receptor; conditions: CHO, 10 uM

T1 sequence (Q9Y5N1 whole entry): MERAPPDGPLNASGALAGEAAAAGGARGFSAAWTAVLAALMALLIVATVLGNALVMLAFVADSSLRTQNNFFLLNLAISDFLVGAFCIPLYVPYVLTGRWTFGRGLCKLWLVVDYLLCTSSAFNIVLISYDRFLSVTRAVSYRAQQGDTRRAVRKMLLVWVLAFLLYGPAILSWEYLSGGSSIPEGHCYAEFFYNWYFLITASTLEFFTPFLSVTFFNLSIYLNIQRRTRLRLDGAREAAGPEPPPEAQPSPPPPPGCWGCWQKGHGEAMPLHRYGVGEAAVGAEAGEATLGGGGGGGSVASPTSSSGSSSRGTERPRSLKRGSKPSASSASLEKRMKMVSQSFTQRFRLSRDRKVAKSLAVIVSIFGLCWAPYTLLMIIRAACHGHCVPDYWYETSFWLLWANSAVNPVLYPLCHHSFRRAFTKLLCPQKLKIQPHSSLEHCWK
Sequence of Cytochrome P450 3A4 (P08684 whole entry): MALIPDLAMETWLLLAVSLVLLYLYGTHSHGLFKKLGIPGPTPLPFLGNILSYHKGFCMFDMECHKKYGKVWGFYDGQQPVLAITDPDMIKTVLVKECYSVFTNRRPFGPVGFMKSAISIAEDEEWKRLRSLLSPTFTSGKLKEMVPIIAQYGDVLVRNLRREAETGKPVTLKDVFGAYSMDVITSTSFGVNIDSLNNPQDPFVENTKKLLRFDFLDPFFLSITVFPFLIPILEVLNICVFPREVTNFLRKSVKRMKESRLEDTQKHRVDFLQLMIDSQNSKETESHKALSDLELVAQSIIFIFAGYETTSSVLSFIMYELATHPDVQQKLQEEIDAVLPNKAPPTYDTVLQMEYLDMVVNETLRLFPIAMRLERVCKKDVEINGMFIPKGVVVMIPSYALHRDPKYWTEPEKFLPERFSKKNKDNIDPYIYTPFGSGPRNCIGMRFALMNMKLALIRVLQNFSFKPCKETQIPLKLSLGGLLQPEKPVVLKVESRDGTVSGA

SMILES: CS(=O)(=O)N1CCC(Oc2ccc3c(c2)CCC2(CCN(C4CCC4)CC2)O3)CC1
- clearance [1]: 9 mL/min/kg
- IC50 (Cytochrome P450 3A4): > 30 µM
- Ki (Histamine H3 receptor [2]): 7 nM
- IC50 (Cytochrome P450 2D6): 18 µM
- half-life [3]: > 40 min
- IC50 (Cytochrome P450 1A2): > 30 µM
- IC50 (Cytochrome P450 2C19): > 30 µM
- half-life [4]: > 40 min
- solubility [5]: > 100 µg/mL
- half-life [6]: > 40 min
- half-life [7]: 36 min
- Kp at 1 h [8]: 1.5
- bioavailability [9]: 4%
- inhibition [10]: < 20%
- Cmax [11]: 83 ng/mL
- Ki (Histamine H3 receptor [12]): 17 nM
- AUC(0-inf) [13]: 392 ng·h/mL
- IC50 (Cytochrome P450 2C9): > 30 µM
- half-life [14]: > 40 min
- inhibition [15]: < 20%
- inhibition [16]: < 20%
- Vd [17]: 0.5 L/kg

SMILES: CCS(=O)(=O)N1CCC(Oc2ccc3c(c2)CCC2(CCN(C4CCC4)CC2)O3)CC1
- Ki (Histamine H3 receptor [2]): 7 nM
- Ki (Histamine H3 receptor [12]): 24 nM

SMILES: c1cc2c(cc1OC1CCNCC1)CCC1(CCN(C3CCC3)CC1)O2
- Ki (Histamine H3 receptor [2]): 3 nM
- Ki (Histamine H3 receptor [12]): 6 nM

SMILES: Oc1ccc2c(c1)CCC1(CCN(C3CCC3)CC1)O2
- inhibition [18]: 50%
- Ki (Histamine H3 receptor [2]): > 3000 nM
- Ki (Histamine H3 receptor [12]): > 3000 nM
- inhibition (Histamine H3 receptor [19]): 50%

SMILES: O=S(=O)(C1CC1)N1CCC(Oc2ccc3c(c2)CCC2(CCN(C4CCC4)CC2)O3)CC1
- clearance [1]: 10 mL/min/kg
- IC50 (Cytochrome P450 3A4): > 30 µM
- Ki (Histamine H3 receptor [2]): 9 nM
- IC50 (Cytochrome P450 2D6): > 30 µM
- half-life [3]: > 40 min
- IC50 (Cytochrome P450 1A2): > 30 µM
- IC50 (Cytochrome P450 2C19): > 30 µM
- half-life [4]: > 40 min
- solubility [5]: > 100 µg/mL
- half-life [6]: > 40 min
- half-life [7]: 108 min
- Kp at 1 h [8]: 2
- bioavailability [9]: 5%
- Cmax [11]: 76 ng/mL
- Ki (Histamine H3 receptor [12]): 18 nM
- AUC(0-inf) [13]: 435 ng·h/mL
- IC50 (Cytochrome P450 2C9): > 30 µM
- half-life [14]: > 40 min
- Vd [17]: 1.6 L/kg

SMILES: CC(=O)N1CCC(Oc2ccc3c(c2)CCC2(CCN(C4CCC4)CC2)O3)CC1
- IC50 (Cytochrome P450 3A4): > 30 µM
- Ki (Histamine H3 receptor [2]): 4 nM
- IC50 (Cytochrome P450 2D6): > 30 µM
- half-life [3]: > 40 min
- IC50 (Cytochrome P450 1A2): > 30 µM
- IC50 (Cytochrome P450 2C19): > 30 µM
- half-life [4]: > 40 min
- half-life [6]: > 40 min
- Ki (Histamine H3 receptor [12]): 10 nM
- IC50 (Cytochrome P450 2C9): > 30 µM
- half-life [14]: > 40 min

SMILES: CC(C)(C)OC(=O)N1CCC(Oc2ccc3c(c2)CCC2(CCN(C4CCC4)CC2)O3)CC1
- Ki (Histamine H3 receptor [2]): 47 nM
- Ki (Histamine H3 receptor [12]): 40 nM

SMILES: CC(C)C(=O)N1CCC(Oc2ccc3c(c2)CCC2(CCN(C4CCC4)CC2)O3)CC1
- clearance [1]: 18 mL/min/kg
- IC50 (Cytochrome P450 3A4): > 30 µM
- Ki (Histamine H3 receptor [2]): 2 nM
- IC50 (Cytochrome P450 2D6): > 30 µM
- half-life [3]: > 40 min
- IC50 (Cytochrome P450 1A2): > 30 µM
- IC50 (Cytochrome P450 2C19): > 30 µM
- half-life [4]: > 40 min
- solubility [5]: > 100 µg/mL
- half-life [6]: > 40 min
- half-life [7]: 66 min
- Kp at 1 h [8]: 2.3
- bioavailability [9]: 9%
- Cmax [11]: 80 ng/mL
- Ki (Histamine H3 receptor [12]): 6 nM
- AUC(0-inf) [13]: 410 ng·h/mL
- IC50 (Cytochrome P450 2C9): > 30 µM
- half-life [14]: > 40 min
- Vd [17]: 1.9 L/kg

SMILES: CC(C)S(=O)(=O)N1CCC(Oc2ccc3c(c2)CCC2(CCN(C4CCC4)CC2)O3)CC1
- Ki (Histamine H3 receptor [2]): 7 nM
- Ki (Histamine H3 receptor [12]): 27 nM

SMILES: O=C(C1CC1)N1CCC(Oc2ccc3c(c2)CCC2(CCN(C4CCC4)CC2)O3)CC1
- clearance [1]: 20 mL/min/kg
- IC50 (Cytochrome P450 3A4): > 30 µM
- Ki (Histamine H3 receptor [2]): 6 nM
- IC50 (Cytochrome P450 2D6): > 30 µM
- half-life [3]: > 40 min
- IC50 (Cytochrome P450 1A2): > 30 µM
- IC50 (Cytochrome P450 2C19): > 30 µM
- half-life [4]: > 40 min
- solubility [5]: > 100 µg/mL
- half-life [6]: > 40 min
- half-life [7]: 96 min
- Kp at 1 h [8]: 2.3
- bioavailability [9]: 8%
- Cmax [11]: 71 ng/mL
- Ki (Histamine H3 receptor [12]): 16 nM
- AUC(0-inf) [13]: 359 ng·h/mL
- IC50 (Cytochrome P450 2C9): > 30 µM
- half-life [14]: > 40 min
- Vd [17]: 2.7 L/kg
